Source: EP4786454A1, “HETEROARYL DERIVATIVE AND USE THEREOF” (priority 2023, dated 2025)

What was measured:
[1] = Plasma protein binding rate, equilibrium dialysis (rat plasma); format: in vitro ADME, Sprague-Dawley rats; conditions: r (Sprague-Dawley rat plasma), dialysis 4 hours at 37 °C, read-out: Unbound PPB%
Experimental: (§1) The protein binding rates of the compounds in the plasma of CD-1 mice, Sprague-Dawley rats, beagle dogs, cynomolgus monkeys, and human were determined using equilibrium dialysis method.
(§2) Commercially available plasma, dual-layer dialysis membrane, and equilibrium dialysis device.
(§3) The dual-layer dialysis membrane was soaked in ultrapure water for about 1 hour, removed and then divided into two parts. It was then soaked in an ethanol:water (20:80, v:v) solution for 20 minutes or placed at 2 to 8 °C, and it was valid for 1 month. Before starting the assay, the dialysis membrane was rinsed twice with ultrapure water and then soaked in ultrapure water for another 20 minutes for later use.
(§4) On the day of assay, the frozen plasma of CD-1 mice, Sprague-Dawley rats, beagle dogs, cynomolgus monkeys, and human was thawed in running cold tap water. After the plasma was completely thawed, the plasma was centrifuged at 3220×g for 5 minutes, and the suspended substances and precipitates in it were removed. The pH of the plasma was determined. The plasma with a pH in the range of 7.4 ± 0.1 was directly used, or the plasma with a pH in the range of 7.4 ± 0.1 after an adjustment with 1% phosphoric acid or 1M sodium hydroxide was used.
(§5) Preparation process of plasma samples: 597 µL of blank plasma from each of the above five species was taken, respectively. 3 µL of a compound or warfarin working solution was added, and the mixture was mixed thoroughly to give a plasma sample with a compound concentration of 2 µM and a warfarin concentration of 2 µM (n=1). The concentration of the organic phase DMSO was 0.5%. The sample was thoroughly mixed before proceeding to the next step.
(§6) Preparation process of T0 samples: 50 µL of a plasma sample containing the compound and warfarin was transferred to a sample receiving plate (n=3), and 50 µL of blank PBS was immediately added. Then, 500 µL of stop solution was added to the T0 sample of the compound and warfarin, and the mixture was stored at 2 to 8 °C, waiting to be processed later together with other dialysis-processed samples.
(§7) Dialysis process of plasma samples: 100 µL of a compound (2 µM) and warfarin (2 µM) plasma sample was added to the donor of each dialysis well (n=3), and 100 µL of blank PBS was added to the corresponding receiver of the dialysis well. The dialysis plate was placed in a 5% CO2 incubator, and incubated at 37 °C with shaking at approximately 100 rpm for 4 hours.
(§8) After the dialysis was completed, 50 µL of dialysis-processed PBS sample and dialysis-processed plasma sample (n=3) were transferred to a new 96-well plate (sample receiving plate). The corresponding volume of the corresponding blank plasma or PBS was added to the sample to make the final volume of each sample well 100 µL, with a plasma to PBS volume ratio of 1:1. All the samples were analyzed by LC-MS/MS after protein precipitation.
(§9) The formulas for calculating the unbound fraction (%Unbound), bound fraction (%Bound) and recovery fraction (%Recovery) of a compound are as follows: %Unbound = 100 ×F / T %Bound = 100 - %Unbound %Recovery = 100 ×(F + T)/ T0 wherein F is the concentration of the compound at the receiver of dialysis; T is the concentration of the compound at the supply end of dialysis; and T0 is the concentration of the compound in the plasma at time zero.

[2] = Plasma protein binding rate, equilibrium dialysis (monkey plasma); format: in vitro ADME, cynomolgus monkeys; conditions: c (cynomolgus monkey plasma), dialysis 4 hours at 37 °C, read-out: Unbound PPB%
Experimental: as §1, §2, §3, §4, §5, §6, §7, §8, §9

[3] = Stability in liver microsomes (human); format: in vitro ADME; conditions: h (human liver microsomes), 0.5 mg/mL, read-out: MMS Clint
Experimental: The purpose of this study was to evaluate the phase I metabolic stability of the assay sample in liver microsomes from CD-1 mice, Sprague-Dawley (SD) rats, beagle dogs, cynomolgus monkeys, and human.
The animal and human liver microsomes used in this assay system were purchased from Xenotech, Corning, or other qualified suppliers.
Preparation of buffer: 73.21 g of potassium phosphate dibasic trihydrate and 10.78 g of potassium dihydrogen phosphate were dissolved in 4000 mL of ultrapure water. The pH of the solution was adjusted to the range of 7.40 ± 0.10 using 10.0% phosphoric acid or 1.00 M potassium hydroxide. Its final concentration was 100 mM.
Preparation of working solutions: An assay sample powder was prepared into a 10.0 mM stock solution with DMSO, and then further diluted with a suitable organic solvent. The control compounds testosterone, diclofenac, and propafenone were prepared into 10.0 mM stock solutions using DMSO, and then further diluted with a suitable organic solvent.
Preparation of liver microsome solution: Microsomes of various species were diluted with 100 mM potassium phosphate buffer to a working solution of 0.56 mg/mL. The final concentration of microsomes in the reaction system was 0.500 mg/mL. Detailed preparation procedures were described in the experimental records.
Preparation of reduced nicotinamide adenine dinucleotide phosphate (NADPH) solution: An appropriate amount of reduced nicotinamide adenine dinucleotide phosphate was dissolved in magnesium chloride solution, and the mixture was shaken to mix well. The final concentrations in the reaction system were 1.00 mM NADPH and 1.00 mM magnesium chloride, respectively. Detailed preparation procedures were described in the experimental records.
Preparation of stop solution: The stop solution was prepared using acetonitrile containing internal standards (tolbutamide and labetalol). The prepared stop solution was stored at 2.0 to 8.0 °C in a refrigerator. Detailed preparation procedures were described in the experimental records. […]

Row | Structure (SMILES) | fraction unbound at 4 h, 2 µM [1] | fraction unbound at 4 h, 2 µM [2] | CLint scaled at 1 µM [3]
1 | CC(C)(C)CC(=O)Nc1nc2c(F)cc(C#N)cn2c1C1=CCCC1 [Compound 3] | 0.097 | 0.134 | 19 mL/min/kg
2 | CC(C)(C)CC(=O)Nc1nc2c(F)cc(C#N)cn2c1-c1ccc(OC(F)(F)F)cc1 [Compound 1] | 0.071 | 0.072 | 30 mL/min/kg
3 | CC(C)(C)CC(=O)Nc1nc2c(F)cc(C#N)cn2c1C12CC(C1)C2 [Compound 5] | 0.166 | 0.159 | < 8.6 mL/min/kg
